From ChEMBL document CHEMBL4138123, “Design, synthesis and biological evaluation of novel pyrazolochalcones as potential modulators of PI3K/Akt/mTOR pathway and inducers of apoptosis in breast cancer cells” (Eur J Med Chem, 2017)

What was measured:
Assay type in all cases: functional
HT-29 [1] = experiment: Cytotoxicity against human HT-29 cells assessed as growth inhibition after 48 hrs by sulforhodamine B assay; conditions: HT-29, 48 h
SF-268 = experiment: Cytotoxicity against human SF268 cells assessed as growth inhibition after 48 hrs by sulforhodamine B assay; conditions: SF-268, 48 h; for CC50: read-out: LC50 (the source's name)
IGROV-1 = experiment: Cytotoxicity against human IGROV1 cells assessed as growth inhibition after 48 hrs by sulforhodamine B assay; conditions: IGROV-1, 48 h
OVCAR-3 = experiment: Cytotoxicity against human OVCAR3 cells assessed as growth inhibition after 48 hrs by sulforhodamine B assay; conditions: OVCAR-3, 48 h
Hs-578T [2] = experiment: Cytotoxicity against human Hs 578T cells assessed as growth inhibition after 48 hrs by sulforhodamine B assay
SNB-19 [3] = experiment: Cytotoxicity against human SNB19 cells assessed as cell growth at 0.01 uM after 48 hrs by sulforhodamine B assay relative to control; conditions: SNB-19, 48 h, read-out: Activity
SF-539 = experiment: Cytotoxicity against human SF539 cells assessed as cell growth at 0.01 uM after 48 hrs by sulforhodamine B assay relative to control; conditions: SF-539, 48 h, read-out: Activity
PC-3 [4] = experiment: Cytotoxicity against human PC3 cells assessed as cell growth at 0.01 uM after 48 hrs by sulforhodamine B assay relative to control; conditions: PC-3, 48 h, read-out: Activity
DU-145 = experiment: Cytotoxicity against human DU145 cells assessed as cell growth at 0.01 uM after 48 hrs by sulforhodamine B assay relative to control; conditions: DU-145, 48 h, read-out: Activity
T47D = experiment: Cytotoxicity against human T47D cells assessed as cell growth at 0.01 uM after 48 hrs by sulforhodamine B assay relative to control; conditions: read-out: Activity
NCI-H322M = experiment: Cytotoxicity against human NCI-H322M cells assessed as cell growth at 0.1 uM after 48 hrs by sulforhodamine B assay relative to control; conditions: read-out: Activity
NCI-H522 = experiment: Cytotoxicity against human NCI-H522 cells assessed as cell growth at 0.1 uM after 48 hrs by sulforhodamine B assay relative to control; conditions: NCI-H522, 48 h, read-out: Activity
OVCAR-5 [5] = experiment: Cytotoxicity against human OVCAR5 cells assessed as cell growth at 0.1 uM after 48 hrs by sulforhodamine B assay relative to control; conditions: OVCAR-5, 48 h, read-out: Activity
MCF7 = experiment: Cytotoxicity against human MCF7 cells assessed as cell growth at 0.1 uM after 48 hrs by sulforhodamine B assay relative to control; conditions: MCF7, 48 h, read-out: Activity
SR [6] = experiment: Cytotoxicity against human SR cells assessed as cell growth at 1 uM after 48 hrs by sulforhodamine B assay relative to control; conditions: read-out: Activity
HCC 2998 [7] = experiment: Cytotoxicity against human HCC2998 cells assessed as cell growth at 1 uM after 48 hrs by sulforhodamine B assay relative to control; conditions: HCC 2998, 48 h, read-out: Activity
HT-29 [8] = experiment: Cytotoxicity against human HT-29 cells assessed as cell growth at 1 uM after 48 hrs by sulforhodamine B assay relative to control; conditions: HT-29, 48 h, read-out: Activity
SW-620 = experiment: Cytotoxicity against human SW620 cells assessed as cell growth at 1 uM after 48 hrs by sulforhodamine B assay relative to control; conditions: SW-620, 48 h, read-out: Activity
SNB-19 [9] = experiment: Cytotoxicity against human SNB19 cells assessed as cell growth at 1 uM after 48 hrs by sulforhodamine B assay relative to control; conditions: SNB-19, 48 h, read-out: Activity
M14 = experiment: Cytotoxicity against human M14 cells assessed as cell growth at 1 uM after 48 hrs by sulforhodamine B assay relative to control; conditions: M14, 48 h, read-out: Activity
786-0 = experiment: Cytotoxicity against human 786-0 cells assessed as cell growth at 1 uM after 48 hrs by sulforhodamine B assay relative to control; conditions: 786-0, 48 h, read-out: Activity
SN12C = experiment: Cytotoxicity against human SN12C cells assessed as cell growth at 1 uM after 48 hrs by sulforhodamine B assay relative to control; conditions: read-out: Activity
Hs-578T [10] = experiment: Cytotoxicity against human Hs 578T cells assessed as cell growth at 1 uM after 48 hrs by sulforhodamine B assay relative to control; conditions: read-out: Activity
HOP-62 = experiment: Cytotoxicity against human HOP62 cells assessed as cell growth at 10 uM after 48 hrs by sulforhodamine B assay relative to control; conditions: HOP-62, 48 h, read-out: Activity
HT-29 [11] = experiment: Cytotoxicity against human HT-29 cells assessed as cell growth at 10 uM after 48 hrs by sulforhodamine B assay relative to control; conditions: HT-29, 48 h, read-out: Activity
U-251 = experiment: Cytotoxicity against human U251 cells assessed as cell growth at 10 uM after 48 hrs by sulforhodamine B assay relative to control; conditions: U-251, 48 h, read-out: Activity
NCI/ADR-RES = experiment: Cytotoxicity against human NCI/ADR-RES cells assessed as cell growth at 10 uM after 48 hrs by sulforhodamine B assay relative to control; conditions: read-out: Activity
RXF 393 = experiment: Cytotoxicity against human RXF393 cells assessed as cell growth at 10 uM after 48 hrs by sulforhodamine B assay relative to control; conditions: RXF 393, 48 h, read-out: Activity
PC-3 [12] = experiment: Cytotoxicity against human PC3 cells assessed as cell growth at 10 uM after 48 hrs by sulforhodamine B assay relative to control; conditions: PC-3, 48 h, read-out: Activity
MDA-MB-468 = experiment: Cytotoxicity against human MDA-MB-468 cells assessed as cell growth at 10 uM after 48 hrs by sulforhodamine B assay relative to control; conditions: MDA-MB-468, 48 h, read-out: Activity
HL-60(TB) = experiment: Cytotoxicity against human HL-60(TB) cells assessed as cell growth at 100 uM after 48 hrs by sulforhodamine B assay relative to control; conditions: HL-60, 48 h, read-out: Activity
SR [13] = experiment: Cytotoxicity against human SR cells assessed as cell growth at 100 uM after 48 hrs by sulforhodamine B assay relative to control; conditions: read-out: Activity
HCC 2998 [14] = experiment: Cytotoxicity against human HCC2998 cells assessed as cell growth at 100 uM after 48 hrs by sulforhodamine B assay relative to control; conditions: HCC 2998, 48 h, read-out: Activity
HCT-15 = experiment: Cytotoxicity against human HCT15 cells assessed as cell growth at 100 uM after 48 hrs by sulforhodamine B assay relative to control; conditions: HCT-15, 48 h, read-out: Activity
SK-MEL-28 = experiment: Cytotoxicity against human SK-MEL-28 cells assessed as cell growth at 100 uM after 48 hrs by sulforhodamine B assay relative to control; conditions: SK-MEL-28, 48 h, read-out: Activity
OVCAR-5 [15] = experiment: Cytotoxicity against human OVCAR5 cells assessed as cell growth at 100 uM after 48 hrs by sulforhodamine B assay relative to control; conditions: OVCAR-5, 48 h, read-out: Activity

Work on `COc1ccc(-c2cc(/C=C/C(=O)c3ccc(OC)c(OC)c3)[nH]n2)cc1` yielded a GI50 (HT-29 [1]) of 1.55 µM, an LC50 (HT-29 [1]) of 7.68 µM and a TGI (HT-29 [1]) of 3.45 µM. It also gave a GI50 (SF-268) of 1.94 µM, a TGI (SF-268) of 4.82 µM and a CC50 (SF-268) of 27.3 µM. For the same compound, the GI50 (IGROV-1) was 1.57 µM, the LC50 (IGROV-1) was 8.49 µM and the TGI (IGROV-1) was 3.65 µM. It also gave a GI50 (OVCAR-3) of 1.19 µM, an LC50 (OVCAR-3) of 5.15 µM and a TGI (OVCAR-3) of 2.47 µM. It also gave a GI50 (Hs-578T [2]) of 3.38 µM, an LC50 (Hs-578T [2]) of over 100 µM and a TGI (Hs-578T [2]) of 29 µM. For the same compound, the growth at 0.01 µM (SNB-19 [3]) was 96%, the growth at 0.01 µM (SF-539) was 95% and the growth at 0.01 µM (PC-3 [4]) was 95%. The growth at 0.01 µM (DU-145) was 104%, the growth at 0.01 µM (T47D) was 95% and the growth at 0.1 µM (NCI-H322M) was 94%. For the same compound, the growth at 0.1 µM (NCI-H522) was 111%, the growth at 0.1 µM (OVCAR-5 [5]) was 89% and the growth at 0.1 µM (MCF7) was 88%. For the same compound, the growth at 1 µM (SR [6]) was 39%, the growth at 1 µM (HCC 2998 [7]) was 102% and the growth at 1 µM (HT-29 [8]) was 77%. The growth at 1 µM (SW-620) was 65%, the growth at 1 µM (SNB-19 [9]) was 80% and the growth at 1 µM (M14) was 97%. The growth at 1 µM (786-0) was 86%, the growth at 1 µM (SN12C) was 80% and the growth at 1 µM (Hs-578T [10]) was 81%. For the same compound, the growth at 10 µM (HOP-62) was -25%, the growth at 10 µM (HT-29 [11]) was -66% and the growth at 10 µM (U-251) was -97%. It also gave a growth at 10 µM (NCI/ADR-RES) of 15%, a growth at 10 µM (RXF 393) of -82% and a growth at 10 µM (PC-3 [12]) of -61%. The growth at 10 µM (MDA-MB-468) was -69%, the growth at 100 µM (HL-60(TB)) was -43% and the growth at 100 µM (SR [13]) was -41%. The growth at 100 µM (HCC 2998 [14]) was -95%, the growth at 100 µM (HCT-15) was -92% and the growth at 100 µM (SK-MEL-28) was -100%. The growth at 100 µM (OVCAR-5 [15]) was -87%.
`COc1cc2c(cc1OC)C(=O)/C(=C/c1cc(-c3ccc4c(c3)OCO4)n[nH]1)C2` showed a GI50 (HT-29 [1]) of 1.45 µM, an LC50 (HT-29 [1]) of 6.63 µM and a TGI (HT-29 [1]) of 3.09 µM. The GI50 (SF-268) was 1.63 µM, the TGI (SF-268) was 3.37 µM and the CC50 (SF-268) was 6.99 µM. The GI50 (IGROV-1) was 1.89 µM, the LC50 (IGROV-1) was 14.3 µM and the TGI (IGROV-1) was 4.58 µM. The GI50 (OVCAR-3) was 1.41 µM, the LC50 (OVCAR-3) was 5.58 µM and the TGI (OVCAR-3) was 2.8 µM. For the same compound, the GI50 (Hs-578T [2]) was 2.61 µM, the LC50 (Hs-578T [2]) was over 100 µM and the TGI (Hs-578T [2]) was 8.08 µM. The growth at 0.01 µM (SNB-19 [3]) was 97%, the growth at 0.01 µM (SF-539) was 100% and the growth at 0.01 µM (PC-3 [4]) was 94%. It also gave a growth at 0.01 µM (DU-145) of 102%, a growth at 0.01 µM (T47D) of 92% and a growth at 0.1 µM (NCI-H322M) of 92%. It also gave a growth at 0.1 µM (NCI-H522) of 89%, a growth at 0.1 µM (OVCAR-5 [5]) of 92% and a growth at 0.1 µM (MCF7) of 89%. The growth at 1 µM (SR [6]) was 38%, the growth at 1 µM (HCC 2998 [7]) was 102% and the growth at 1 µM (HT-29 [8]) was 74%. For the same compound, the growth at 1 µM (SW-620) was 66%, the growth at 1 µM (SNB-19 [9]) was 84% and the growth at 1 µM (M14) was 98%. For the same compound, the growth at 1 µM (786-0) was 88%, the growth at 1 µM (SN12C) was 87% and the growth at 1 µM (Hs-578T [10]) was 92%. It also gave a growth at 10 µM (HOP-62) of -92%, a growth at 10 µM (HT-29 [11]) of -77% and a growth at 10 µM (U-251) of -97%. It also gave a growth at 10 µM (NCI/ADR-RES) of -17%, a growth at 10 µM (RXF 393) of -78% and a growth at 10 µM (PC-3 [12]) of -75%. For the same compound, the growth at 10 µM (MDA-MB-468) was -87%, the growth at 100 µM (HL-60(TB)) was -36% and the growth at 100 µM (SR [13]) was -22%. It also gave a growth at 100 µM (HCC 2998 [14]) of -94%, a growth at 100 µM (HCT-15) of -69% and a growth at 100 µM (SK-MEL-28) of -92%. It also gave a growth at 100 µM (OVCAR-5 [15]) of -86%.
